Like-named read-outs stand apart in the source and are kept apart here.
Tests used:
Test in all cases: Glasshouse assay for herbicidal activity, pre-/post-emergence (percentage phytotoxicity)
Type in all cases: in vivo
[1] = test system: Alopecurus myosuroides (ALOMY); settings: Alopecurus myosuroides, Rate 250 g/ha, 100%=total damage, 0%=no damage
Experimental: (§1) Seeds of a variety of monocotyledonous and dicotyledonous test plants are sown in standard soil in pots. The plants are cultivated for one day (for pre-emergence) or for about 12 days (for post-emergence) under controlled conditions in a glasshouse (warm climate species at 24/18° C., cool climate species at 20/16° C., both at day/night; 16 hours light; 65% humidity). The test plants are then grown on, in a glasshouse (greenhouse) under controlled conditions (warm climate species at 24/18° C., cool climate species at 20/16° C., both at day/night; 16 hours light; 65% humidity) and are watered twice daily. 15 days after application of the test herbicide (15DAA) (for post-emergence), and 20 days after application of the test herbicide (20DAA) (for pre-emergence), the test plants are evaluated visually, and an assessed percentage phytotoxicity score is given for each herbicidal application on each plant species (with 100%=total damage to plant; 0%=no damage to plant). The plant species tested are as follows: Alopecurus myosuroides (ALOMY), Avena fatua (AVEFA), Lolium perenne (LOLPE), Echinochloa crus-galli (ECHCG).

[2] = test system: Avena fatua (AVEFA); settings: Avena fatua, Rate 250 g/ha, 100%=total damage, 0%=no damage
Experimental: as §1

[3] = test system: Echinochloa crus-galli (ECHCG); settings: Echinochloa crus-galli, Rate 250 g/ha, 100%=total damage, 0%=no damage
Experimental: as §1

[4] = test system: Lolium perenne (LOLPE); settings: Lolium perenne, Rate 250 g/ha, 100%=total damage, 0%=no damage
Experimental: as §1

[5] = 360 h, post-emergence, visual assessment 15 DAA, read-out: Post-emergence herbicidal activity (percentage phytotoxicity), ALOMY POST
[6] = 480 h, pre-emergence, visual assessment 20 DAA, read-out: Pre-emergence herbicidal activity (percentage phytotoxicity), ALOMY PRE
[7] = post-emergence, 360 h, post-emergence, visual assessment 15 DAA, read-out: Post-emergence herbicidal activity (percentage phytotoxicity), AVEFA POST
[8] = pre-emergence, 480 h, pre-emergence, visual assessment 20 DAA, read-out: Pre-emergence herbicidal activity (percentage phytotoxicity), AVEFA PRE
[9] = post-emergence, 360 h, post-emergence, visual assessment 15 DAA, read-out: Post-emergence herbicidal activity (percentage phytotoxicity), ECHCG POST
[10] = pre-emergence, 480 h, pre-emergence, visual assessment 20 DAA, read-out: Pre-emergence herbicidal activity (percentage phytotoxicity), ECHCG PRE
[11] = post-emergence, 360 h, post-emergence, visual assessment 15 DAA, read-out: Post-emergence herbicidal activity (percentage phytotoxicity), LOLPE POST
[12] = pre-emergence, 480 h, pre-emergence, visual assessment 20 DAA, read-out: Pre-emergence herbicidal activity (percentage phytotoxicity), LOLPE PRE

SMILES | pest or weed control at 250 g/ha [1, 5] | pest or weed control at 250 g/ha [1, 6] | pest or weed control at 250 g/ha [2, 7] | pest or weed control at 250 g/ha [2, 8] | pest or weed control at 250 g/ha [3, 9] | pest or weed control at 250 g/ha [3, 10] | pest or weed control at 250 g/ha [4, 11] | pest or weed control at 250 g/ha [4, 12]
Cc1cc(-c2ccc(F)cc2)cc(C)c1C1C(=O)CC(CCNC(=O)C2=NOC(C)(C)C2)C1=O (stereo not shown) [Compound A109] | 100% | 90% | 100% | 90% | 100% | 90% | 100% | 90%
Cc1cc(-c2ncc(F)cn2)cc(C)c1C1C(=O)CC(CCNC(=O)C2=NOC(C)(C)C2)C1=O (stereo not shown) [Compound A110] | 100% | 100% | 100% | 90% | 100% | 90% | 90% | 90%
Cc1cc(-c2ncc(F)cc2F)cc(C)c1C1C(=O)CC(CCNC(=O)C2=NOC(C)(C)C2)C1=O (stereo not shown) [Compound A111] | 100% | 100% | 100% | 100% | 100% | 90% | 40% | 90%
CC#Cc1cc(C)c(C2C(=O)CC(CCNc3ccc(C#N)cn3)C2=O)c(C)c1 (stereo not shown) [Compound A112] | 100% | 100% | 100% | 90% | 100% | 100% | 100% | 90%
CC#Cc1cc(C)c(C2C(=O)CC(CCNc3ccc(C(F)(F)F)cn3)C2=O)c(C)c1 (stereo not shown) [Compound A113] | 100% | 90% | 100% | 70% | 100% | 90% | 100% | 90%
Cc1cc(-c2ncc(C#N)cn2)cc(C)c1C1C(=O)CC(CCNC(=O)C2=NOC(C)(C)C2)C1=O (stereo not shown) [Compound A114] | 90% | 90% | 100% | 80% | 100% | 70% | 100% | 70%
Cc1cc(OCC(F)(F)F)cc(C)c1C1C(=O)CC(CCNC(=O)C2=NOC(C)(C)C2)C1=O (stereo not shown) [Compound A115] | 100% | 100% | 100% | 80% | 100% | 70% | 90% | 90%
Cc1cc(-c2ncc(Br)cn2)cc(C)c1C1C(=O)CC(CCNC(=O)C2=NOC(C)(C)C2)C1=O (stereo not shown) [Compound A116] | 100% | 90% | 100% | 90% | 100% | 90% | 100% | 90%
Cc1cc(-c2ncc(Cl)cc2F)cc(C)c1C1C(=O)CC(CCNC(=O)C2=NOC(C)(C)C2)C1=O (stereo not shown) [Compound A117] | 100% | 90% | 100% | 80% | 100% | 80% | 100% | 80%
Cc1cc(-c2ncc(Cl)cn2)cc(C)c1C1C(=O)CC(CCNC(=O)C2=NOC(C)(C)C2)C1=O (stereo not shown) [Compound A118] | 100% | 100% | 100% | 90% | 100% | 90% | 100% | 90%
Cc1cc(-c2ccc(C#N)cn2)cc(C)c1C1C(=O)CC(CCNC(=O)C2=NOC(C)(C)C2)C1=O (stereo not shown) [Compound A119] | 90% | 90% | 100% | 80% | 100% | 90% | 100% | 80%
Cc1cc(-c2ncc(F)cn2)cc(C)c1C1C(=O)CC(CCNc2ccc(C(F)(F)F)cn2)C1=O (stereo not shown) [Compound A120] | 90% | 90% | 100% | 90% | 100% | 90% | 90% | 90%
Cc1cc(C)c(C2C(=O)CC(CCNc3ncc(F)cn3)C2=O)c(C)c1 (stereo not shown) [Compound A121] | 100% | 100% | 100% | 100% | 100% | 100% | 90% | 100%
C#Cc1cc(C)cc(C)c1C1C(=O)CC(CCNC(=O)C2=NOC(C)(C)C2)C1=O (stereo not shown) [Compound A123, N-[2-[3-(2-ethynyl-4,6-dimethyl-phenyl)-2,4-dioxo-cyclopentyl]ethyl]-5,5-dimethyl-4H-isoxazole-3-carboxamide] | 100% | 70% | 100% | 50% | 100% | 20% | 80% | 90%
Cc1cc(C)c(C2C(=O)CC(CCNc3ncccc3C#N)C2=O)c(C)c1 (stereo not shown) [Compound A124] | 80% | 60% | 60% | 40% | 100% | 90% | 80% | 80%
Cc1cc(C)c(C2C(=O)CC(CCNc3ncc(Cl)cn3)C2=O)c(C)c1 (stereo not shown) [Compound A125] | 90% | 90% | 90% | 80% | 100% | 90% | 100% | 90%
Cc1cc(C)c(C2C(=O)CC(CCNc3ncc(Br)cn3)C2=O)c(C)c1 (stereo not shown) [Compound A126, 4-[2-[(5-bromopyrimidin-2-yl)amino]ethyl]-2-(2,4,6-trimethylphenyl)cyclopentane-1,3-dione] | 90% | 80% | 90% | 100% | 90% | 80% | 90% | 90%

Source: patent US10301295B2, “Herbicidal compounds” (Syngenta Participations AG, priority 2014, dated 2019)
